Results reported in patent publication US7709495B2, “Methods and reagents for the treatment of inflammatory disorders” (CombinatoRx, Incorporated, priority 2003, dated 2010).
Where two headings read alike, the source gives them in different places.

Tested on: TNFα secretion
Assay: TNFα secretion assay (ELISA), phorbol 12-myristate 13-acetate/ionomycin stimulated white blood cells
Format: cell-based
Conditions: Homo sapiens, PBMC, read-out: % Inhibition TNFα PBMC PI
Experimental: The compound dilution matrix was assayed for the suppression of phorbol 12-myristate 13 acetate/ionomycin stimulated IL-1 and TNFα secretion as well as the suppression of lipopolysaccharide-stimulated TNFα secretion from human white blood cells using the ELISA method, as described below.
A stock solution containing prednisolone (0.36 mg/ml) was prepared in DMSO. A stock solution containing ibudilast (1.84 mg/ml) was prepared in DMSO. Master plates were prepared for dilutions of the stock solutions above.
The final single agent plates were generated by transferring 1 μL of stock solution from the specific master plate to separate dilution plates containing 99 μL of media (RPMI; Gibco BRL, #11875-085), 10% fetal bovine serum (Gibco BRL, #25140-097), 2% penicillin/streptomycin (Gibco BRL, #15140-122)) using the Packard Mini-Trak liquid handler. The dilution plates were then mixed and a 10 μL aliquot transferred from each dilution plate to the final assay plate (polystyrene 384-well plate (NalgeNunc)), which had been pre-filled with 30 μL/well RPMI media containing 33 ng/mL phorbol 12-myristate 13-acetate (Sigma, P-1585) and 2.475 ng/mL ionomycin (Sigma, I-0634) or alternatively for the LPS stimulated assay RPMI media containing 2 μg/ml lipopolysaccharide (Sigma, L-4130).
The effects of test compound combinations on TNFα secretion were assayed in white blood cells from human buffy coat stimulated with phorbol 12-myistate 13-acetate, or lipopolysaccharide as follows. Human white blood cells from buffy coat were diluted 1:50 in media (RPMI; Gibco BRL, #11875-085), 10% fetal bovine serum (Gibco BRL, #25140-097), 2% penicillin/streptomycin (Gibco BRL, #15140-122)) and 50 μL of the diluted white blood cells were placed in each well of the final assay plate created in the above section. After 16-18 hours of incubation at 37° C. with 5% CO2 in a humidified incubator, the plate was centrifuged and the supernatant transferred to a white opaque polystyrene 384 well plate (NalgeNunc, Maxisorb) coated with an anti-TNFα antibody (PharMingen, #551220). After a two-hour incubation, the plate was washed (Tecan Powerwasher 384) with PBS containing 0.1% Tween 20 and incubated for one additional hour with biotin labeled anti-TNFα antibody (PharMingen, #554511) and HRP coupled to streptavidin (PharMingen, #13047E). The plate was then washed again with 0.1% Tween 20/PBS. An HRP-luminescent substrate was added to each well, and the light intensity of each well was measured using a plate luminometer.
The percent inhibition (% I) for each well was calculated using the following formula: % I=[(avg. untreated wells−treated well)/(avg. untreated wells)]×100
The average untreated well value (avg. untreated wells) is the arithmetic mean of 30 wells from the same assay plate treated with vehicle alone.
TNFα secretion was measured by ELISA as described above after stimulation with phorbol 12-myristate 13-acetate and ionomycin. The effects of varying concentrations of ibudilast, prednisolone and a combination of ibudilast and prednisolone were compared to control wells.

Structure (SMILES) | inhibition at 0.062 µM (ibudilast 0.062 μM alone) | inhibition at 0.12 µM (ibudilast 0.12 μM alone) | inhibition at 0.25 µM (ibudilast 0.25 μM alone) | inhibition at 0.5 µM (ibudilast 0.5 μM alone) | inhibition at 1 µM (ibudilast 1 μM alone) | inhibition at 2 µM (ibudilast 2 μM alone) | inhibition at 4 µM (ibudilast 4 μM alone) | inhibition at 8 µM (ibudilast 8 μM alone) | inhibition at 0.0078 µM (prednisolone 0.0078 μM alone) | inhibition at 0.016 µM (prednisolone 0.016 μM alone) | inhibition at 0.031 µM (prednisolone 0.031 μM alone) | inhibition at 0.062 µM (prednisolone 0.062 μM alone) | inhibition at 0.12 µM (prednisolone 0.12 μM alone) | inhibition at 0.25 µM (prednisolone 0.25 μM alone) | inhibition at 0.5 µM (prednisolone 0.5 μM alone) | inhibition at 1 µM (prednisolone 1 μM alone)
CC(C)C(=O)c1c(C(C)C)nn2ccccc12 [Ibudilast, ibudilast] | 2.8% | 2.5% | 6.5% | 18% | 28% | 31% | 33% | 40% | – | – | – | – | – | – | – | –
C[C@]12C=CC(=O)C=C1CC[C@@H]1[C@@H]2[C@@H](O)C[C@@]2(C)[C@H]1CC[C@]2(O)C(=O)CO [Prednisolone, prednisolone] | – | – | – | – | – | – | – | – | 12% | 17% | 22% | 22% | 29% | 32% | 33% | 36%
